Measured values reported in patent US10988477B2 (Merck Patent GmbH, priority 2018, dated 2021).

How the values were obtained:
GCN2 kinase = GCN2 kinase (Homo sapiens, UniProt Q9P2K8); test: GCN2 enzyme inhibition assay (Transcreener ADP2 fluorescence polarization); assay type: biochemical; settings: compounds of Formula II; 280 μM ATP, 4 nM GCN2 kinase
Summary of the method: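 ADP formation read by Transcreener FP after a 1 h, 25 °C kinase reaction containing 280 μM ATP, 200 μM (RS)7 substrate and 4 nM GCN2, pH 7.5 Tris buffer. Compounds (0–8 μM final) were added 10 min before ATP. Percent inhibition gave IC50 and apparent Ki via tight-binding fit.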

[1] = target: intracellular GCN2 (phosphorylation of the GCN2 substrate eIF2α) (Homo sapiens, UniProt Q9P2K8); test: GCN2 cellular inhibition assay (AlphaScreen SureFire P-eIF2α Ser51, borrelidin-treated U2OS cells); assay type: cell-based; settings: compounds of Formula II; biomarker assay, phosphorylated eIF2α Ser51 in borrelidin-treated U2OS cells
Sequence of intracellular GCN2 (phosphorylation of the GCN2 substrate eIF2α) (Q9P2K8 whole entry): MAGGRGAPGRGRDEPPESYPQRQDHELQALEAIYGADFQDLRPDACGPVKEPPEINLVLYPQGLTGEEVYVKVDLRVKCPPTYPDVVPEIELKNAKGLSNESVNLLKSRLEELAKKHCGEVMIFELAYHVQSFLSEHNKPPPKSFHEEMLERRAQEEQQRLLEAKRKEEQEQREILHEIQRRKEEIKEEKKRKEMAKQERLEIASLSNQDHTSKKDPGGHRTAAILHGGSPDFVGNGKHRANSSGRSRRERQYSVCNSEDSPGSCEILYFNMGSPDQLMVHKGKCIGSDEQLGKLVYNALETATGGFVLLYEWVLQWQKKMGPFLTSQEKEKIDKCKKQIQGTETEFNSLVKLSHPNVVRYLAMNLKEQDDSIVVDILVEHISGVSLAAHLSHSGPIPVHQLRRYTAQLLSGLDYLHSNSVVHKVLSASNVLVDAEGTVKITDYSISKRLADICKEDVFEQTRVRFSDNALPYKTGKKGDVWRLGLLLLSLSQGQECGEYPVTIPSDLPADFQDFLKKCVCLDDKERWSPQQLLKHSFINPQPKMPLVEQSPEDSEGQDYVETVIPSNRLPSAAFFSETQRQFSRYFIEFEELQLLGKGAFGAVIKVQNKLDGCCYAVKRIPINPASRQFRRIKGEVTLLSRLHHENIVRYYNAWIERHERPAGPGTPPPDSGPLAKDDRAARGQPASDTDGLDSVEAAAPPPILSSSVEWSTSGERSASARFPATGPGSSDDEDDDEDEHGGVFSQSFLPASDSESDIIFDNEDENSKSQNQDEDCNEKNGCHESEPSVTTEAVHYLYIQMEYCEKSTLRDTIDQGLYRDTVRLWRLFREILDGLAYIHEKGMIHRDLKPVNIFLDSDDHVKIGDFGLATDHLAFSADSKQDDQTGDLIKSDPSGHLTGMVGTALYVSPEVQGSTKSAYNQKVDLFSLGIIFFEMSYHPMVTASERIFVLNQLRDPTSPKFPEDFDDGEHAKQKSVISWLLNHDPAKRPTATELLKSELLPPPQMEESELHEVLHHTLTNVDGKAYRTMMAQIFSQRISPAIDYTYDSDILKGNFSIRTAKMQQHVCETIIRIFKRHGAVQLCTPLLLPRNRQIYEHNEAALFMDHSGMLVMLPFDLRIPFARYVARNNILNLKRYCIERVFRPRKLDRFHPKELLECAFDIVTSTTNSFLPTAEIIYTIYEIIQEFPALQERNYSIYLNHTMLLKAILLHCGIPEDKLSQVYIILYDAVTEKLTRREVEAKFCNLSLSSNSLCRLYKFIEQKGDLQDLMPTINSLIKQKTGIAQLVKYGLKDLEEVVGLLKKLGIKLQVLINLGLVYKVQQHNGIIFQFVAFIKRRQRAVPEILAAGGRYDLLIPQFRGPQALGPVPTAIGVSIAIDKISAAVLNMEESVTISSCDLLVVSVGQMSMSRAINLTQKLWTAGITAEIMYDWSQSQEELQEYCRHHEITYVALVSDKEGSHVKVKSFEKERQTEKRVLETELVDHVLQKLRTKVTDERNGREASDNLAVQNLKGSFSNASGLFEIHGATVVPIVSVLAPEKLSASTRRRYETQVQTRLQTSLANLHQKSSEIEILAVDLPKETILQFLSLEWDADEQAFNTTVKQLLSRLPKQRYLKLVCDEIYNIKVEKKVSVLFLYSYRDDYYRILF
Summary of the method: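 Borrelidin at 10 μM is added to U2OS cells immediately after compound (4-fold dilution series, 40 μM top final) for 1 h at 37 °C. Phosphorylated eIF2α Ser51 in lysates is quantified by AlphaScreen and expressed as percent inhibition against borrelidin-stimulated controls.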

Sequence of GCN2 kinase (Q9P2K8 whole entry): as above

Ki (GCN2 kinase) [nM]	IC50 [1] [nM]	Structure (SMILES)
10 to 1000	> 5000	C[C@@H]1CCCCN1c1cc(-c2cnc3ccc(C(F)F)nn23)ncn1 [II-354, (R)-6-(Difluoromethyl)-3-(6-(2-methylpiperidin-1-yl)pyrimidin-4-yl)imidazo[1,2-b]pyridazine]
10 to 1000	> 5000	FC(F)c1ccc2ncc(-c3cc(C4=CCOCC4)ncn3)n2n1 [II-357, 6-(Difluoromethyl)-3-(6-(3,6-dihydro-2H-pyran-4-yl)pyrimidin-4-yl)imidazo[1,2-b]pyridazine]
10 to 1000	> 5000	FC(F)c1ccc2ncc(-c3cc(C4CCOCC4)ncn3)n2n1 [II-358, 6-(Difluoromethyl)-3-(6-tetrahydropyran-4-ylpyrimidin-4-yl)imidazo[1,2-b]pyridazine]
10 to 1000	> 5000	OCC1CN(c2cc(-c3cnc4ccc(C(F)F)nn34)ncn2)CC2(CC2)O1 (stereo not drawn) [II-359, (7-(6-(6-(Difluoromethyl)imidazo[1,2-b]pyridazin-3-yl)pyrimidin-4-yl)-4-oxa-7-azaspiro[2.5]octan-5-yl)methanol]
10 to 1000	500 to 5000	CS(=O)(=O)NC1CCCN(c2cc(-c3cnc4ccc(C(F)F)nn34)ncn2)C1 (stereo not drawn) [II-362, N-(1-(6-(6-(Difluoromethyl)imidazo[1,2-b]pyridazin-3-yl)pyrimidin-4-yl)piperidin-3-yl)methanesulfonamide]
10 to 1000	> 5000	CC1CC(C)(O)C(CNS(C)(=O)=O)CN1c1cc(-c2cnc3ccc(C(F)F)nn23)ncn1 (stereo not drawn) [II-365, N-((1-(6-(6-(Difluoromethyl)imidazo[1,2-b]pyridazin-3-yl)pyrimidin-4-yl)-4-hydroxy-4,6-dimethylpiperidin-3-yl)methyl)methanesulfonamide]
< 10	< 500	CC1C(CNS(C)(=O)=O)C(C)(O)CCN1c1cc(-c2cnc3ccc(C(F)F)nn23)ncn1 (stereo not drawn) [II-366, N-((1-(6-(6-(Difluoromethyl)imidazo[1,2-b]pyridazin-3-yl)pyrimidin-4-yl)-4-hydroxy-2,4-dimethylpiperidin-3-yl)methyl)methanesulfonamide]
10 to 1000	500 to 5000	CC1CC(C)(O)C(CNS(C)(=O)=O)CN1c1cc(-c2cnc3ccc(C(F)F)nn23)ncn1 (stereo not drawn) [II-367, N-((1-(6-(6-(Difluoromethyl)imidazo[1,2-b]pyridazin-3-yl)pyrimidin-4-yl)-4-hydroxy-4,6-dimethylpiperidin-3-yl)methyl)methanesulfonamide]
10 to 1000	> 5000	CC(=O)N1CCN(c2cc(-c3cnc4ccc(C(F)F)nn34)ncn2)C(C)C1 (stereo not drawn) [II-368, 1-(4-(6-(6-(Difluoromethyl)imidazo[1,2-b]pyridazin-3-yl)pyrimidin-4-yl)-3-methylpiperazin-1-yl)ethan-1-one]
10 to 1000	> 5000	CS(=O)(=O)N1CCC2C(C1)OCCN2c1cc(-c2cnc3ccc(C(F)F)nn23)ncn1 (stereo not drawn) [II-369, 1-(6-(6-(Difluoromethyl)imidazo[1,2-b]pyridazin-3-yl)pyrimidin-4-yl)-6-(methylsulfonyl)octahydro-1H-pyrido[3,4-b][1,4]oxazine]
10 to 1000	500 to 5000	CS(=N)(=O)CC1CCCN(c2cc(-c3cnc4ccc(C(F)F)nn34)ncn2)C1 (stereo not drawn) [II-370, ((1-(6-(6-(Difluoromethyl)imidazo[1,2-b]pyridazin-3-yl)pyrimidin-4-yl)piperidin-3-yl)methyl)(imino)(methyl)-λ^6-sulfanone]
< 10	500 to 5000	CC1C(CO)CCCN1c1cc(-c2cnc3ccc(C(F)F)nn23)ncn1 (stereo not drawn) [II-373, (1-(6-(6-(Difluoromethyl)imidazo[1,2-b]pyridazin-3-yl)pyrimidin-4-yl)-2-methylpiperidin-3-yl)methanol]
< 10	< 500	CS(=O)(=O)NCC1CN(c2cc(-c3cnc4ccc(C(F)F)nn34)ncn2)CC2(CC2)O1 (stereo not drawn) [II-375, N-((7-(6-(6-(Difluoromethyl)imidazo[1,2-b]pyridazin-3-yl)pyrimidin-4-yl)-4-oxa-7-azaspiro[2.5]octan-5-yl)methyl)methanesulfonamide]
10 to 1000	500 to 5000	NS(=O)(=O)C1CCCN(c2cc(-c3cnc4ccc(C(F)F)nn34)ncn2)C1 (stereo not drawn) [II-376, 1-(6-(6-(Difluoromethyl)imidazo[1,2-b]pyridazin-3-yl)pyrimidin-4-yl)piperidine-3-sulfonamide]
10 to 1000	500 to 5000	NC(=O)C1CCCN(c2cc(-c3cnc4ccc(C(F)F)nn34)ncn2)C1 (stereo not drawn) [II-378, 1-(6-(6-(Difluoromethyl)imidazo[1,2-b]pyridazin-3-yl)pyrimidin-4-yl)piperidine-3-carboxamide]
10 to 1000	500 to 5000	O=S(=O)(NCC1CCCN(c2cc(-c3cnc4ccc(C(F)F)nn34)ncn2)C1)C(F)(F)F (stereo not drawn) [II-379, N-((1-(6-(6-(Difluoromethyl)imidazo[1,2-b]pyridazin-3-yl)pyrimidin-4-yl)piperidin-3-yl)methyl)-1,1,1-trifluoromethanesulfonamide]
> 1000	> 5000	FC(F)c1ccc2ncc(-c3cc(N4CCCCC4C(F)(F)F)ncn3)n2n1 (stereo not drawn) [II-380, 6-(Difluoromethyl)-3-(6-(2-(trifluoromethyl)piperidin-1-yl)pyrimidin-4-yl)imidazo[1,2-b]pyridazine]
< 10	< 500	CC1C(CNS(C)(=O)=O)CN(c2cc(-c3cnc4ccc(C(F)F)nn34)ncn2)CC1(F)F (stereo not drawn) [II-381, N-((1-(6-(6-(Difluoromethyl)imidazo[1,2-b]pyridazin-3-yl)pyrimidin-4-yl)-5,5-difluoro-4-methylpiperidin-3-yl)methyl)methanesulfonamide]
10 to 1000	500 to 5000	CC1C(CNS(C)(=O)=O)CN(c2cc(-c3cnc4ccc(C(F)F)nn34)ncn2)CC1(F)F (stereo not drawn) [II-382, N-((1-(6-(6-(Difluoromethyl)imidazo[1,2-b]pyridazin-3-yl)pyrimidin-4-yl)-5,5-difluoro-4-methylpiperidin-3-yl)methyl)methanesulfonamide]
10 to 1000	500 to 5000	CS(=O)(=O)NCC1CN(c2cc(-c3cnc4ccc(C(F)F)nn34)ncn2)CC2(CC2)O1 (stereo not drawn) [II-383, N-((7-(6-(6-(Difluoromethyl)imidazo[1,2-b]pyridazin-3-yl)pyrimidin-4-yl)-4-oxa-7-azaspiro[2.5]octan-5-yl)methyl)methanesulfonamide]
< 10	< 500	CS(=O)(=O)NCC1CN(c2cc(-c3cnc4ccc(C(F)F)nn34)ncn2)CC2(CC2)O1 (stereo not drawn) [II-384, N-((7-(6-(6-(Difluoromethyl)imidazo[1,2-b]pyridazin-3-yl)pyrimidin-4-yl)-4-oxa-7-azaspiro[2.5]octan-5-yl)methyl)methanesulfonamide]
< 10	< 500	CNS(=O)(=O)NCC1CCCN(c2cc(-c3cnc4ccc(C(F)F)nn34)ncn2)C1 (stereo not drawn) [II-385, 1-((1-(6-(6-(Difluoromethyl)imidazo[1,2-b]pyridazin-3-yl)pyrimidin-4-yl)piperidin-3-yl)methyl)-3-methylsulfuric diamide]
< 10	< 500	CNS(=O)(=O)NCC1CN(c2cc(-c3cnc4ccc(C(F)F)nn34)ncn2)CCO1 (stereo not drawn) [II-386, 1-((4-(6-(6-(Difluoromethyl)imidazo[1,2-b]pyridazin-3-yl)pyrimidin-4-yl)morpholin-2-yl)methyl)-3-methylsulfuric diamide]
10 to 1000	500 to 5000	CC1C(CNS(N)(=O)=O)CCCN1c1cc(-c2cnc3ccc(C(F)F)nn23)ncn1 (stereo not drawn) [II-387, 6-(Difluoromethyl)-3-[6-[2-methyl-3-[(sulfamoylamino)methyl]-1-piperidyl]pyrimidin-4-yl]imidazo[1,2-b]pyridazine]
< 10	< 500	COC1CCN(c2cc(-c3cnc4ccc(C(F)F)nn34)ncn2)CC1CNS(C)(=O)=O (stereo not drawn) [II-390, N-((1-(6-(6-(Difluoromethyl)imidazo[1,2-b]pyridazin-3-yl)pyrimidin-4-yl)-4-methoxypiperidin-3-yl)methyl)methanesulfonamide]
< 10	< 500	CCC1C(CNS(C)(=O)=O)CCCN1c1cc(-c2cnc3ccc(C(F)F)nn23)ncn1 (stereo not drawn) [II-391, N-((1-(6-(6-(Difluoromethyl)imidazo[1,2-b]pyridazin-3-yl)pyrimidin-4-yl)-2-ethylpiperidin-3-yl)methyl)methanesulfonamide]
10 to 1000	500 to 5000	CS(=O)(=O)NCC1CCN(c2cc(-c3cnc4ccc(C(F)F)nn34)ncn2)C1 (stereo not drawn) [II-394, N-((1-(6-(6-(Difluoromethyl)imidazo[1,2-b]pyridazin-3-yl)pyrimidin-4-yl)pyrrolidin-3-yl)methyl)methanesulfonamide]
10 to 1000	> 5000	CS(=O)(=O)C1CCN(c2cc(-c3cnc4ccc(C(F)F)nn34)ncn2)C1 (stereo not drawn) [II-395, 6-(Difluoromethyl)-3-(6-(3-(methylsulfonyl)pyrrolidin-1-yl)pyrimidin-4-yl)imidazo[1,2-b]pyridazine]
10 to 1000	500 to 5000	CS(=O)(=O)CC1CCN(c2cc(-c3cnc4ccc(C(F)F)nn34)ncn2)C1 (stereo not drawn) [II-396, 6-(Difluoromethyl)-3-(6-(3-((methylsulfonyl)methyl)pyrrolidin-1-yl)pyrimidin-4-yl)imidazo[1,2-b]pyridazine]
< 10	< 500	CC1CC(CNS(C)(=O)=O)CN(c2cc(-c3cnc4ccc(C(F)F)nn34)ncn2)C1 (stereo not drawn) [II-397, N-((1-(6-(6-(Difluoromethyl)imidazo[1,2-b]pyridazin-3-yl)pyrimidin-4-yl)-5-methylpiperidin-3-yl)methyl)methanesulfonamide]
